{
  "source": "patent US20250017874A1",
  "about": "“PHARMACEUTICAL COMPOSITIONS FOR USE IN REDUCING HYPERPIGMENTATION” (Caliway Biopharmaceuticals Co., Ltd., priority 2023, published 2025)",
  "type_in_all_cases": "cell-based, mouse",
  "key": {"B16-F10 cells [1]": {"system": "B16-F10 cells", "experiment": "In vitro efficacy comparison: melanin content, α-MSH 0.5 h then test article 30 h (Example 5)", "conditions": "α-MSH 0.5 h then TA 30 h", "method": "B16-F10 cells were seeded in a 96-well plate. Except the vehicle group, cells of the other groups were cultured in the presence of α-MSH for 0.5 hours first. The compositions for examination were then added to the culture medium and the cells were further cultured for 30 hours. The rest of the experimental conditions and procedures were similar to those described in Example 3. Afterwards, the cells were collected to evaluate the effect of 4-[(E)-2-(3,5-dihydroxyphenyl)ethenyl]benzene-1,3-diol compositions (IM01 Group) and Arbutin and 5-[(E)-2-(4-hydroxyphenyl)ethenyl]benzene-1,3-diol (IM00 Group) compositions on reducing melanin levels. The experimental design is summarized in Table 18 and results shown in both Table 18 and FIG. 5."}, "B16-F10 cell line [2]": {"system": "B16-F10 cell line", "conditions": "for Relative cell viability (%): mouse", "source_text": "(§1) Table 23 below lists the study design for evaluating EC50 values of IM01, which contains 4-[(E)-2-(3,5-dihydroxyphenyl)ethenyl]benzene-1,3-diol.\n(§2) Table 25 below lists the study design for evaluating EC50 values of IM01, which contains 4-[(E)-2-(3,5-dihydroxyphenyl)ethenyl]benzene-1,3-diol."}, "B16-F10 cell line [3]": {"system": "B16-F10 cell line", "experiment": "In vitro whitening efficacy: melanin content (Example 7)", "conditions": "Table 26", "source_text": "as §1, §2"}, "B16-F10 cells [4]": {"system": "B16-F10 cells", "experiment": "In vitro melanin content versus arbutin and hydroquinone (Example 6)", "method": "Except the vehicle group, cells of the other groups were cultured with α-MSH for 24 hours first. The compositions for investigation (see Tables 19 and 20) were then added to the culture medium and the cells were further cultured for 24 hours. The rest of the experimental operation process was similar to that described in Example 3. […] [table] [table]"}},
  "note": "Where two headings read alike, the source gives them in different places.",
  "data": [
    {"smiles": "Oc1ccc(/C=C/c2cc(O)cc(O)c2)cc1", "note": "[IM00, 5-[(E)-2-(4-hydroxyphenyl)ethenyl]benzene-1,3-diol]", "values": [
      {"measurement": "Melanin content (%) Mean", "setting": "B16-F10 cells [1]; TA 87.62 μM (IM00-20)", "result": 98.9, "unit": "%"}
    ]},
    {"smiles": "OC[C@H]1O[C@@H](Oc2ccc(O)cc2)[C@H](O)[C@@H](O)[C@@H]1O", "note": "[Arbutin, reference compound]", "values": [
      {"measurement": "Melanin content (%) Mean", "setting": "B16-F10 cells [1]; TA 918.27 μM", "result": 95.8, "unit": "%"},
      {"measurement": "Relative cell viability (%)", "setting": "B16-F10 cell line [2]; 450 μM", "result": "100.8 ± 1.2", "unit": "%"},
      {"measurement": "Relative cell viability (%)", "setting": "B16-F10 cell line [2]; 900 μM", "result": "93.7 ± 1.6", "unit": "%"},
      {"measurement": "Melanin content (%)", "setting": "B16-F10 cell line [3]; TA 450 μM (Arbutin/L)", "result": "78.5 ± 1.1", "unit": "%"},
      {"measurement": "Melanin content (%)", "setting": "B16-F10 cell line [3]; TA 900 μM (Arbutin/H)", "result": "67.0 ± 2.8", "unit": "%"},
      {"measurement": "Melanin content (%) Mean ± SD", "setting": "B16-F10 cells [4]; TA 450 μM, Table 21 experiment", "result": "76.1 ± 6.3", "unit": "%"},
      {"measurement": "Melanin content (%) Mean ± SD", "setting": "B16-F10 cells [4]; TA 900 μM, Table 21 experiment", "result": "60.9 ± 4.5", "unit": "%"},
      {"measurement": "Melanin content (%) Mean ± SD", "setting": "B16-F10 cells [4]; TA 900 μM, Table 22 experiment", "result": "62.8 ± 1.8", "unit": "%"},
      {"measurement": "Melanin content (%) Mean ± SD", "setting": "B16-F10 cells [4]; TA 1800 μM, Table 22 experiment", "result": "47.1 ± 0.3", "unit": "%"}
    ]},
    {"smiles": "Oc1ccc(O)cc1", "note": "[Hydroquinone, hydroquinone, reference compound]", "values": [
      {"measurement": "Cytotoxicity", "setting": "B16-F10 cell line [2]", "result": "high cytotoxicity"},
      {"measurement": "Relative cell viability (%)", "setting": "B16-F10 cell line [2]; 60 μM", "result": "88.2 ± 6.0", "unit": "%"},
      {"measurement": "Melanin content (%)", "setting": "B16-F10 cell line [3]; TA 60 μM (/L of IM01 and HQ), HQ vehicle DDW", "result": "34.6 ± 2.8", "unit": "%"},
      {"measurement": "Melanin content (%)", "setting": "B16-F10 cell line [3]; TA 120 μM (/H of IM01 and HQ), HQ vehicle DDW", "result": "40.5 ± 3.7", "unit": "%"},
      {"measurement": "Melanin content (%) Mean ± SD", "setting": "B16-F10 cells [4]; TA 120 μM, Table 21 experiment", "result": "61.5 ± 4.6", "unit": "%"}
    ]}
  ]
}
